Test results published in patent US20260327243A1, “SPIRO-HETEROCYCLIC INHIBITORS OF KRAS G12C MUTANT PROTEINS AND USES THEREOF” (AMGEN INC., priority 2023, published 2026).

What follows are molecules tested against KRAS^G12C (Homo sapiens, UniProt P01116, C118A/G12C) (assay: Coupled Nucleotide Exchange Assay). Details: GDP-bound KRAS (aa 1-169) G12C/C118A; 2 h compound pre-incubation; SOS-mediated exchange, 30 min; cRAF binding (AlphaLISA).
Type: biochemical
Experimental: The KRAS^G12C coupled nucleotide exchange assay allows for the screening and profiling of KRAS^G12C antagonists/inhibitors by monitoring the binding of an effector protein (e.g., a Ras binding domain of Raf1, RBD-cRaf) to KRAS^G12C. Purified GDP-bound KRAS protein (aa 1-169), containing both G12C and C118A amino acid substitutions and an N-terminal His-tag, was pre-incubated in assay buffer (25 mM HEPES pH 7.4, 10 mM MgCl2, 0.01% Triton X-100, either with or without 0.1% BSA) with serially diluted compound for 2 h. For all subsequent steps, BSA was omitted and DTT was added to the reaction buffer at a final concentration of 1 mM. Following compound pre-incubation, purified SOS protein (aa 564-1049) and GTP (Roche 10106399001) were added to the assay wells and incubated for an additional 30 min. To determine the extent of inhibition of SOS-mediated nucleotide exchange, purified GST-tagged cRAF (aa 1-149), nickel chelate AlphaLISA acceptor beads (PerkinElmer AL108R), and AlphaScreen glutathione donor beads (PerkinElmer 6765302) were added to the assay wells and incubated for 5-30 min. The assay plates were then read on a plate reader measuring luminescence signal. Signal intensity of compound-containing wells were normalized to DMSO control, and data were analyzed using a 4-parameter logistic model to calculate IC50 values.

Chain of KRAS^G12C (P01116 1-169 isoform P01116-2 G12C/C118A): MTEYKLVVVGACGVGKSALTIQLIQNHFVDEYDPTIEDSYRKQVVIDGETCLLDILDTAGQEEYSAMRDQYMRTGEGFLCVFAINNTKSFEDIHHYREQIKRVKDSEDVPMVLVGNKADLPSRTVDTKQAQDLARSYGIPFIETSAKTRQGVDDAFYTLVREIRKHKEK

| IC50 | Compound |
| --- | --- |
| 825 nM | C=CC(=O)N1CCN([C@@H]2CN(c3cc(N4CCC5(CC4)OCC=C5C)nc(C(F)F)n3)[C@@H]2C)CC1 [Compound 3-050, 1-(4-((2R,3R)-1-(2-(Difluoromethyl)-6-(4-methyl1-oxa-8-azaspiro[4.5]dec3-en-8-yl)pyrimidin-4-yl)-2-methylazetidin-3-yl)piperazin-1-yl)prop2-en-1-one] |
| 1320 nM | C=CC(=O)N1CCN([C@@H]2CN(c3cc(N4CCC5(CC4)C(C)=CCN5C)nc(C(F)(F)F)n3)[C@@H]2C)CC1 [Compound 3-055, 1-(4-((2R,3R)-1-(6-(1,4-Dimethyl-1,8-diazaspiro[4.5]dec-3-en-8-yl)-2-(trifluoromethyl)pyrimidin-4-yl)-2-methylazetidin-3-yl)piperazin-1-yl)prop-2-en1-one] |
| 6200 nM | C=CC(=O)N1CCN(C2CN(c3cc(N4CCC5(CCCO5)[C@@H](CO)C4)nc(C(F)(F)F)c3C#N)C2)CC1 (stereo partly drawn) [Compound 3-062-2, 4-(3-(4-acryloylpiperazin-1-yl)azetidin-1-yl)-6-((6R)-6-(hydroxymethyl)-1-oxa-8-azaspiro[4.5]decan-8-yl)-2-(trifluoromethyl)nicotinonitrile] |
| 8240 nM | C=CC(=O)N1CCN(C2CN(c3cc(N4CCC5(CCc6ccccc65)CC4)nc(C(F)(F)F)n3)C2)CC1 [Compound 3-063, 1-(4-(1-(6-(2,3-Dihydrospiro[indene-1,4′-piperidin]-1′-yl)-2-(trifluoromethyl)pyrimidin-4-yl)azetidin-3-yl)piperazin-1-yl) prop-2-en-1-one] |
| 5700 nM | C=CC(=O)N1CCN(C2CN(c3cc(N4CCC5(CC4)OCCc4ccsc45)nc(C(F)(F)F)n3)C2)CC1 [Compound 3-064, 1-(4-(1-(6-(4′,5′-dihydrospiro[piperidine-4,7′-thieno[2,3-c]pyran]-1-yl)-2-(trifluoromethyl)pyrimidin-4-yl)azetidin-3-yl)piperazin-1-yl)prop-2-en-1-one] |
| 752 nM | C=CC(=O)N1CCN(C2CN(c3cc(N4CCC5(CC4)OC(C)C=C5Cl)nc(C(F)(F)F)c3C#N)C2)CC1 (centres unmarked) [Compound 3-065, 4-(3-(4-Acryloylpiperazin-1-yl)azetidin-1-yl)-6-(4-chloro-2-methyl-1-oxa-8-azaspiro[4.5]dec-3-en-8-yl)-2-(trifluoromethyl)nicotinonitrile] |
| 550 nM | C=CC(=O)N1CCN(C2CN(c3cc(N4CCC5(C=CC(C)O5)CC4)nc(C(F)(F)F)c3C#N)C2)CC1 (centres unmarked) [Compound 3-066, 4-(3-(4-acryloylpiperazin-1-yl)azetidin-1-yl)-6-(2-methyl-1-oxa-8-azaspiro[4.5]dec-3-en-8-yl)-2-(trifluoromethyl)nicotinonitrile] |
| 1280 nM | C=CC(=O)N1CCN(C2CN(c3cc(N4CCC5(C=C[C@@H](C)O5)CC4)nc(C(F)(F)F)c3C#N)C2)CC1 [Compound 3-068-1, (R)-4-(3-(4-acryloylpiperazin-1-yl)azetidin-1-yl)-6-(2-methyl-1-oxa-8-azaspiro[4.5]dec-3-en-8-yl)-2-(trifluoromethyl)nicotinonitrile] |
| 1540 nM | C=CC(=O)N1CCN(C2CN(c3cc(N4CCC5(C=C[C@H](C)O5)CC4)nc(C(F)(F)F)c3C#N)C2)CC1 [Compound 3-068-2, (S)-4-(3-(4-acryloylpiperazin-1-yl)azetidin-1-yl)-6-(2-methyl-1-oxa-8-azaspiro[4.5]dec-3-en-8-yl)-2-(trifluoromethyl)nicotinonitrile] |
| 830 nM | C=CC(=O)N1CCN(C2CN(c3cc(N4CCC5(CC4)OCCc4ncsc45)nc(C(F)F)c3C)C2)CC1 [Compound 3-069, 1-(4-(1-(2-(Difluoromethyl)-6-(6′,7′-dihydrospiro[piperidine-4,4′-pyrano[4,3-d]thiazol]-1-yl)-3-methylpyridin-4-yl)azetidin-3-yl)piperazin-1-yl) prop-2-en-1-one] |
| 1400 nM | C=CC(=O)N1CCN(C2CN(c3cc(N4CCC5(C=CCO5)CC4)nc(C(F)F)c3C)C2)CC1 [Compound 3-070, 1-(4-(1-(2-(difluoromethyl)-3-methyl-6-(1-oxa-8-azaspiro[4.5]dec-3-en-8-yl)pyridin-4-yl)azetidin-3-yl)piperazin-1-yl)prop-2-en-1-one] |
